Like-named read-outs stand apart in the source and are kept apart here.
Tests used:
[1] = in vivo; cited from earlier work
[2] = Relative water solubility of the steroids; format: physicochemical
[3] = In vivo fluocinolone acetonide levels in rabbit eyes after intravitreal implant
Description: The in vivo study was conducted on four rabbits. The fluocinolone-containing implants were surgically implanted into the posterior segment (i.e., the vitreous) of the right eye (OD) and left eye (OS) of each rabbit. The aqueous humor (15-20 μL) and the vitreous humor (150-200 μL) were withdrawn for the first two rabbits, while the sampling for the remaining two rabbits was determined by a sampling schedule wherein the sampling days were days 7, 14, 21, 40, and 60, 90, and 120.

CC(C)OC(=O)CCC/C=C\C[C@@H]1[C@@H](CC[C@@H](O)CCc2ccccc2)[C@H](O)C[C@@H]1O [latanoprost]
human eyes with increase in brown pigment in the iris [1]: 5-15%

CC1(C)O[C@@H]2C[C@H]3[C@@H]4CCC5=CC(=O)C=C[C@]5(C)[C@@]4(F)[C@@H](O)C[C@]3(C)[C@]2(C(=O)CO)O1 [triamcinalone acetonide]
water solubility, times more soluble than beclomethasone dipropionate [2]: about 150 times

CC1(C)O[C@@H]2C[C@H]3[C@@H]4C[C@H](F)C5=CC(=O)C=C[C@]5(C)[C@@]4(F)[C@@H](O)C[C@]3(C)[C@]2(C(=O)CO)O1 [Fluocinolone acetonide, 1,4-pregnadien-6α, 9α-difluoro-11β, 16α,17,21-tetrol-3,20-dione 16,17-acetonide]
fluocinolone acetonide level in anterior chamber / aqueous humor ([3]; implant configuration #29, any time point): not detected | Fluocinolone (ng/mL) in vitreous humor, single eye ([3]; intravitreal implant configuration #29, day 40): 40.80 ng/mL | concentration at 7 day ([3]; vitreous humor, intravitreal implant configuration #29, day 7): 95.9 ng/mL | concentration at 14 day ([3]; vitreous humor, intravitreal implant configuration #29, day 14): 50.9 ng/mL | concentration at 21 day ([3]; vitreous humor, intravitreal implant configuration #29, day 21): 45.7 ng/mL | concentration at 40 day ([3]; vitreous humor, intravitreal implant configuration #29, day 40, read-out: Fluocinolone (ng/mL) in vitreous humor, Average): 42.4 ng/mL | concentration at 40 day ([3]; vitreous humor, intravitreal implant configuration #29, day 40, read-out: Fluocinolone (ng/mL) in vitreous humor, single eye): 44 ng/mL | concentration at 60 day ([3]; vitreous humor, intravitreal implant configuration #29, day 60): 50.6 ng/mL | concentration at 90 day ([3]; vitreous humor, intravitreal implant configuration #29, day 90): 36.1 ng/mL | concentration at 120 day ([3]; vitreous humor, intravitreal implant configuration #29, day 120): 28.1 ng/mL
